Literature values in patent US20030012825A1, “Metallized molecule therapies” (priority 2000, published 2003).

Experiments:
[1] = in vivo
[2] = system: flow-mediated vasodilation; details: in vivo
[3] = system: Metrazol-induced seizure; details: subcutaneously
[4] = system: Maximal Electroshock-induced seizure; details: subcutaneously
[5] = system: HIV
[6] = in vivo; remark: listed apart in the source

COC1=C(OC)C(=O)C(C/C=C(\C)CC/C=C(\C)CC/C=C(\C)CC/C=C(\C)CC/C=C(\C)CC/C=C(\C)CC/C=C(\C)CC/C=C(\C)CC/C=C(\C)CCC=C(C)C)=C(C)C1=O [Coenzyme Q10]
EEG brain activity [1]: lowering of EEG

[Cl][Cu][Cl] [copper chloride]
effect on flow-mediated vasodilation [2]: improve flow-mediated vasodilation

O=C(O)c1ccccc1[O-].O=C(O)c1ccccc1[O-].[Cu+2] [Cu(II) (salicylate) 2]
dose at which anticonvulsant activity is initiated, preventing the Metrazol-induced seizure [3]: 100 milligrams per kilogram of bodyweight | dose at which anticonvulsant activity is initiated, preventing the Maximal Electroshock-induced seizure [4]: 600 milligrams per kilogram of bodyweight

[Cu+] [copper ions]
effect on intracellular HIV replication [5]: inhibit intracellular HIV replication

N[C@@H](Cc1ccc(O)cc1)C(=O)O [tyrosine]
ability to pass the blood-brain barrier [6]: unique ability of passing the blood-brain barrier
